Source: patent publication US20230172912A1, “COMPOUNDS FOR TREATING PNEUMONIA, SEPSIS, AND CORONAVIRUS INFECTION” (HEIDELBERG IMMUNOTHERAPEUTICS GMBH, priority 2020, published 2023)
Several values for one entry are separate records, joined by “and”; a condition that tells them apart may be missing. Equal values may be shown once. Read-outs that look alike come from different tables or passages of the source.

Assays:
[1] = test system: serum cytokines and chemokines (IL-6, MIP-1b, IP-10, M-CSF); experiment: Clinical laboratory IL-6 and research serum cytokine and chemokine multiplex analysis before and after maraviroc; assay type: in vivo, human
Procedure: (§1) Clinical laboratory parameters were monitored daily. If patients gave voluntary consent, additional blood for cytokine and chemokine profiling in a research context was obtained and stored at -80° C. until use in the multiplex analysis (Bio-Plex Pro Human Cytokine 48-Plex Screening Panel plus ICAM and VCAM, Biorad, Munich, Germany) as described previously (Halama N, Michel S, Kloor M, et al., Cancer Res 2011;71:5670-7). Median protein concentrations per patient were compared in two groups: before and five or more days after the first day of maraviroc treatment.
For research cytokine analyses, cytokines which were undetectable in more than 3 samples were excluded. Correction for batch effects from three experiments was performed using the Python packagepycombat (version 0.14), and was validated by analyzing the mixture of samples within UMAP embeddings (McInnes L, Healy J, Melville J. UMAP: Uniform Manifold Approximation and Projection for Dimension Reduction. arXiv 2018). Wilcoxon signed-rank tests were used when comparing cytokine concentrations between groups. Resulting p-values were adjusted for multiple hypothesis testing according to the Benjamini and Hochberg method (Benjamini Y, Hochberg Y., J R Stat Soc B 1995;57:289-300). Kaplan-Meier estimator of survival was employed to visualize cumulative clinical improvement. Hazard ratio and the logrank test were used to compare improvement between patients in different groups using the R packages survival, survminer, and cmprsk. Stated percentages and quartiles include rounded numbers. Statistical analyses were carried out using R-3.5.3, Python-3.6.4, Excel (Microsoft), and SigmaPlot (Systat Software, Inc).

[2] = Safety and clinical laboratory parameters during maraviroc treatment of severe COVID-19; assay type: in vivo, human
Procedure: as §1
Monitoring of clinical laboratory parameters also included, among others, serum levels of creatinine for kidney function, white blood count, lymphocyte count, and interleukin 6 (IL-6) as markers of inflammation and infection.

SARS-CoV-2 pneumonia = experiment: Time course of clinical inflammation parameters (CRP, transferrin saturation, IL-6) in serum of COVID-19 pneumonia patients; assay type: in vivo, human; conditions: COVID-19 pneumonia patients on standard therapy (piperacillin/tazobactam, caspofungin, hydroxychloroquine), FIG. 1
Procedure: Patients with diagnosed SARS-CoV-2 pneumonia received standard therapy with piperacillin/tazobactam, caspofungin, and hydroxychloroquine; where deemed clinically necessary, additionally Maraviroc, a CCR5 inhibitor, was administered as indicated in FIG. 1.
Patient characteristics were as follows: • Patient A (FIG. 1A): person, no relevant previous disease; • Patient B (FIG. 1B): person; • Patient C (FIG. 1C): person, no relevant previous disease; • Patient D (FIG. 1 D): person, state after chemotherapy for Burkitt lymphoma; under artificial respiration; • Patient E (FIG. 1E): person; • Patient F (FIG. 1 F): person; • Patient G (FIG. 1G): person, under artificial respiration; • Patient H (FIG. 1 H):person; • Patient I (FIG. 1 I): person; • Patient K (FIG. 1 K): person

[3] = test system: severe COVID-19 (SARS-CoV-2 infection); assay type: in vivo
SARS-CoV-2 = conditions: severe COVID-19 cases; preprint; cited from earlier work
interleukin 6 (IL-6) = conditions: 5 of 6 patients (range 83 to 8175 pg per milliliter), three days after administration; cited from earlier work
[4] = serum, subset of 14 patients, p<0.05, not significant after adjustment for multiple testing
[5] = Patient 43, day 5, decreased on days 6 and 7
[6] = patients who received at least one dose before or concomitant to maraviroc

Cc1nnc(C(C)C)n1[C@@H]1C[C@H]2CC[C@@H](C1)N2CC[C@H](NC(=O)C1CCC(F)(F)CC1)c1ccccc1 [maraviroc, 4,4-difluoro—N—[(1S)-3-[(1S,5R)-3-(3-methyl-5-propan-2-yl-1,2,4-triazol-4-yl)-8-azabicyclo[3.2.1]octan-8-yl]-1-phenylpropyl]cyclohexane-1-carboxamide]
change in concentration of MIP-1b (CCL4) from before to after treatment ([1]; serum, subset of 14 patients, after = 5 days or more after baseline, FIG. 5): significant increase | change in IP-10 (CXCL10) from before to after treatment [1, 4]: decrease | change in M-CSF (CSF1) from before to after treatment [1, 4]: decrease | median IL-6 level ([1]; three days after administration, decrease from baseline median 74.7 pg per milliliter, p-value=0.002): 37.7 pg per milliliter | novel adverse events ([2]; 47 severe COVID-19 patients): no novel AEs have been observed | increase in ALT from baseline [2, 5]: 2.8 fold | increase in AST from baseline [2, 5]: 3.6 fold | adverse event grade (CTCAE v5.0) ([2]; Patient 43, liver function): grade 2, moderate liver function AE | other changes of clinical laboratory parameters ([2]; creatinine, white blood count, lymphocyte count, IL-6 among others, monitored daily): no other clinically significant changes were observed | increase of inflammation markers after administration (SARS-CoV-2 pneumonia): reverted in a very fast manner in all cases | median time to a substantial clinical improvement from baseline ([3]; IQR 7-16 days): 9 days | median time to improvement on the ordinal scale from baseline ([3]; all patients who improved, IQR 5-13 days): 8 days | patients with improvement on the 6-stage ordinal scale ([3]; breathing ambient air at baseline, 2 of 2 patients): 100% | patients worsened (died), mortality ([3]; invasive mechanical ventilation at baseline, 1 of 11 patients, 40 day observational period): 9.1% and 9% | patients remained under invasive ventilation ([3]; invasive ventilation at baseline, 2 of 11 patients): 18.2% | patients with improvement on the 6-stage ordinal scale ([3]; invasive ventilation at baseline, 8 of 11 patients): 72.7% | median time to improvement on the ordinal scale from baseline ([3]; invasive ventilation at baseline, IQR 5-19 days): 14 days | patients showing an improvement during the observational period ([3]; maraviroc patients not treated with HCQ, 14 of 18): 77.9% | median time to improvement ([3]; maraviroc patients not treated with HCQ, IQR 3-11 days): 7 days | patients showing an improvement during the observational period ([3]; maraviroc patients treated with at least one dose of HCQ, 22 of 29): 75.9% | median time to improvement ([3]; maraviroc patients treated with at least one dose of HCQ, IQR 3-13 days): 6 days | patients with improvement on the 6-stage ordinal scale ([3]; non-invasive ventilation at baseline, 7 of 11 patients): 63.6% | median time to improvement on the ordinal scale from baseline ([3]; not receiving invasive ventilation at baseline, IQR 5-11 days): 7 days | patients worsened from non-invasive to invasive ventilation ([3]; one patient of 47, after or during maraviroc treatment): 2.1% | patients with no change on the 6-stage ordinal scale ([3]; overall cohort, 4 of 47 patients): 8.5% | deaths (overall mortality) ([3]; overall cohort, 5 of 47 patients, 40 day time frame, median follow-up 12 days): 11% | patients worsened on the 6-stage ordinal scale ([3]; overall cohort, 6 of 47 patients, including deaths): 12.8% | patients discharged ([3]; overall cohort, 29 of 47 patients): 61.7% | patients with substantial clinical improvement (decrease of two stages or more or discharge) ([3]; overall cohort, 34 of 47 patients, day of final data acquisition): 72% | patients with improvement on the 6-stage ordinal scale ([3]; overall cohort, 37 of 47 patients, baseline until last day of data acquisition): 78.7% | clinical outcome of coronavirus infection / severe COVID-19 cases ([3]; overall statement): remarkably positive clinical outcomes | patients with improvement on the 6-stage ordinal scale ([3]; supplemental low-flow oxygen at baseline, 20 of 23 patients): 87% | patients with no change ([3]; without invasive mechanical ventilation at baseline, 2 of 36 patients): 5.6% | patients worsened ([3]; without invasive mechanical ventilation at baseline, 5 of 36 patients): 13.9% | patients improved ([3]; without invasive mechanical ventilation at baseline, 29 of 36 patients): 80.6%

C[C@]12C=CC(=O)C=C1CC[C@@H]1[C@@H]2[C@@H](O)C[C@@]2(C)[C@H]1CC[C@]2(O)C(=O)CO [prednisolone]
number of patients who died ([3]; in vivo): 1 | number of patients improved on the ordinal scale from baseline [3, 6]: 3 of 7 | number of patients with no change on the ordinal scale from baseline [3, 6]: 2 | number of patients worsened on the ordinal scale from baseline [3, 6]: 2

tocilizumab: concomitant investigational treatment
number of patients who died [3, 6]: 3 | number of patients with no change on the ordinal scale from baseline [3, 6]: 1 of 4 | number of patients worsened on the ordinal scale from baseline [3, 6]: 3

B1: leronlimab: humanized IgG4 monoclonal antibody that blocks the chemokine receptor CCR5 on immune cells (antibody, chains of the INN, looked up, V domains shown)
VH: EVQLVESGGGLVKPGGSLRLSCAASGYTFSNYWIGWVRQAPGKGLEWIGDIYPGGNYIRNNEKFKDKTTLSADTSKNTAYLQMNSLKTEDTAVYYCGSSFGSNYVFAWFTYWGQGTLVTVSS
VL: DIVMTQSPLSLPVTPGEPASISCRSSQRLLSSYGHTYLHWYLQKPGQSPQLLIYEVSNRFSGVPDRFSGSGSGTDFTLKISRVEAEDVGVYYCSQSTHVPLTFGQGTKVEIK
change in plasma viral load (SARS-CoV-2): decrease | change of high IL-6 levels (interleukin 6 (IL-6)): decreased substantially
